tested on: not listed separately; assay: acute oral toxicity (LD50); conditions: in vivo

| SMILES | LD50 |
| --- | --- |
| O=c1c2ccccc2nc([S+]([O-])Cc2ccccn2)n1-c1ccccc1 (stereo not drawn) [3-Phenyl-2-(2-pyridylmethylsulfinyl)-4(3H)-quinazolinone] | > 3000 mg/kg |

tested on: indomethacin induced ulcer; assay: antiulcer activity: suppression of indomethacin induced ulcer in mice; format: in vivo, ddY series male mice; conditions: Mus musculus, po, 4 h, read-out: Suppression rate of indomethacin induced ulcer, 100 mg/kg, p.o.
Experimental: The antiulcer activity of the compounds of this invention was determined by the following method. Four-week-old ddY series male mice were used as the test animals after they were fasted for 24 hours. Each test compound suspended in a 1% gum arabic solution was administerd to the stomach of each mouse at a dose of 100 mg/kg, and then, after 30 minutes, 20 mg/kg of indomethacin was administered orally. Four hours after the administration of indomethacin, the stomach of mouse was extirpated and the length of ulcers was measured. Then, the ulcer index was determined by the total sum of the scores as calculated in Table 1.

| SMILES | inhibition in vivo at 100 mg/kg |
| --- | --- |
| CN/C(=N/CCSCc1nc[nH]c1C)NC#N [Cimetidine, reference compound] | 40% |

same assay, conditions: po; mouse, 100 mg/kg p.o. 30 min before 20 mg/kg indomethacin; ulcer index 4 h later, vs control group; read-out: Suppression rate of indomethacin induced ulcer, 100 mg/kg, p.o.

| SMILES | inhibition in vivo at 100 mg/kg |
| --- | --- |
| COc1ccc(-n2c([S+]([O-])Cc3nccc(OC)c3C)nc3ccc(C)cc3c2=O)cc1 (stereo not drawn) [2-[(4-methoxy-3-methylpyridin-2-yl)methylsulfinyl]-3-(4-methoxyphenyl)-6-methyl-4(3H)-quinazolinone] | 51% |
| COc1cc(C[S+]([O-])c2nc3ccccc3c(=O)n2-c2ccccc2)ncc1C (stereo not drawn) [2-[(4-methoxy-5-methylpyridin-2-yl)methylsulfinyl]-3-phenyl-4(3H)-quinazolinone] | 82% |
| COc1cc(C[S+]([O-])c2nc3ccc(C)cc3c(=O)n2-c2ccccc2)ncc1C (stereo not drawn) [2-[(4-methoxy-5-methylpyridine-2-yl)methylsulfinyl]-6-methyl-3-phenyl-4(3H)-quinazolinone] | 59% |
| Cc1ccnc(C[S+]([O-])c2nc3ccccc3c(=O)n2-c2ccccc2)c1 (stereo not drawn) [2-[(4-methylpyridin-2-yl)methylsulfinyl]-3-phenyl-4(3H)-quinazolinone] | 68% |
| O=c1c2ccccc2nc([S+]([O-])Cc2ccccn2)n1-c1cccc2ccccc12 (stereo not drawn) [3-(1-naphthyl)-2-(2-pyridylmethylsulfinyl)-4(3H)-quinazolinone] | 39% |
| O=c1c2ccccc2nc([S+]([O-])Cc2ccccn2)n1-c1ccccc1Cl (stereo not drawn) [3-(2-chlorophenyl)-2-(2-pyridylmethylsulfinyl)-4(3H)-quinazolinone] | 56% |
| COc1cccc(-n2c([S+]([O-])Cc3ccccn3)nc3ccccc3c2=O)c1 (stereo not drawn) [3-(3-methoxyphenyl)-2-(2-pyridylmethylsulfinyl)-4(3H)-quinazolinone] | 73% |
| COc1ccc(-n2c([S+]([O-])Cc3ccccn3)nc3ccccc3c2=O)cc1 (stereo not drawn) [3-(4-methoxyphenyl)-2-(2-pyridylmethylsulfinyl)-4(3H)-quinazolinone] | 72% |
| Cc1ccc(-n2c([S+]([O-])Cc3ccccn3)nc3ccccc3c2=O)cc1 (stereo not drawn) [3-(4-methylphenyl)-2-(2-pyridylmethylsulfinyl)-4(3H)-quinazolinone] | 73% |
| O=c1c2ccccc2nc([S+]([O-])Cc2ccccn2)n1-c1ccccc1 (stereo not drawn) [3-Phenyl-2-(2-pyridylmethylsulfinyl)-4(3H)-quinazolinone] | 83% |
| O=c1c2ccccc2nc([S+]([O-])Cc2ccncc2)n1-c1ccccc1 (stereo not drawn) [3-Phenyl-2-(4-pyridylmethylsulfinyl)-4(3H)-quinazolinone] | 69% |
| CC(C)Cn1c([S+]([O-])Cc2ccccn2)nc2ccccc2c1=O (stereo not drawn) [3-isobutyl-2-(2-pyridylmethylsulfinyl)-4(3H)-quinazolinone] | 40% |
| O=c1c2ccccc2nc([S+]([O-])Cc2cccnc2)n1-c1ccccc1 (stereo not drawn) [3-phenyl-2-(3-pyridylmethylsulfinyl)-4(3H)-quinazolinone] | 55% |
| O=c1c2ccccc2nc([S+]([O-])Cc2ccnc3ccccc23)n1-c1ccccc1 (stereo not drawn) [3-phenyl-2-(4-quinolylmethylsulfinyl)-4(3H)-quinazolinone] | 64% |
| Cc1cccc2nc([S+]([O-])Cc3ccccn3)n(-c3ccccc3)c(=O)c12 (stereo not drawn) [5-methyl-3-phenyl-2-(2-pyridylmethylsulfinyl)-4(3H)-quinazolinone] | 77% |
| Cc1ccc2nc([S+]([O-])Cc3ccccn3)n(-c3ccccc3)c(=O)c2c1 (stereo not drawn) [6-methyl-3-phenyl-2-(2-pyridylmethylsulfinyl)-4(3H)-quinazolinone] | 56% |

Source: patent US4833144A, “2-Alkylsulfinyl-4(3H)-quinazolinone derivatives and pharmaceutical compositions” (Nisshin Flour Milling Co., Ltd., priority 1987, dated 1989)
